# Measurements from PubChem BioAssay AID1996.
# Details: buffer; pH 7.4; 200.0 µM
row,solubility kinetic [µg/mL],SMILES
1,36,COc1ccnc2c1c(=O)n(Cc1ccccc1Cl)c(=O)n2C
2,5.1,CCCOc1ccccc1/C=C(\C#N)C(=O)Nc1cccc(C)n1
3,11.8,COc1cccc(N2CCN(C(=O)c3cc4cc(Cl)ccc4[nH]3)CC2)c1
4,23.6,Cc1ccc2cccc(OCc3cccc([N+](=O)[O-])c3)c2n1
5,0.8,Cn1cc(C(=O)C(=O)N2CCc3ccccc32)c2ccccc21
6,6.8,Cc1cc(C(=O)Nc2ccc(N3CCCCC3)cc2)no1
7,40.6,Cc1ccc2nc(C)c3c(c2c1)N(c1ccc(F)cc1)CC3
8,14.9,O=C(c1ccccc1Br)N1CCc2c([nH]c3ccccc23)C1
9,12.4,COc1ccc(NC(=O)C2CCCN(C(=O)Nc3ccc(F)cc3)C2)cc1 (stereo not given)
10,20.2,O=C(CCCn1cnc2ccccc2c1=O)Nc1ccccc1F
11,31.8,Cc1ccc(NC(=O)C(C)N2CCc3ccccc3C2)cc1 (stereo not given)
12,> 44.8,Cc1nn(-c2ccc(C(=O)O)cc2)c2c1C(=O)CC(C)(C)C2
13,44.2,CCCCC(=O)N1CCN(c2nc3ccc(F)cc3s2)CC1
14,1.2,Cc1ccccc1NC(=O)c1ccc2ccccc2c1
15,4.2,O=C(NCc1ccc(F)cc1)c1cc(C(=O)C2CC2)c[nH]1
16,42.5,Cc1ccc(C)c(NC(=O)COC(=O)Cc2ccsc2)c1
17,31.4,COc1ccc(CNC2c3ccccc3-c3ccccc32)cc1OC
18,46.2,O=C1CC(C(=O)N2CCCc3ccccc32)CN1c1ccc(Cl)cc1 (stereo not given)
19,10.1,CN1C(=O)Nc2cccc3cccc1c23
20,> 48.7,CC(=O)Nc1ccc(OCC(=O)N2CCc3ccccc3C2)cc1
21,2.1,COc1ccc(-c2nc(-c3cccnc3)no2)cc1
22,> 44,Cc1ccc2[nH]c(=O)c(CC(=O)O)c(-c3ccccc3)c2c1

row,solubility kinetic [µg/mL],SMILES
1,49.9,O=C(CN1CCN(C/C=C/c2ccccc2)CC1)Nc1ccc(F)cc1F
2,22,CC(C)c1ccc(CNc2ccc3c(c2)ncn3C)cc1
3,< 0.6,Cc1ccc(NC(=O)CCSc2ccccc2)c(C)c1
4,39.2,Cc1ccc(NS(=O)(=O)c2cccc3nsnc23)cc1C
5,1.6,CCN1C(=O)N(CC)c2cccc3cccc1c23
6,1.6,Cc1cccc(NC(=O)c2ccc3c(c2)CCN3S(C)(=O)=O)c1C
7,10.1,COc1cc2ncnc(Nc3ccc4c(c3)OCO4)c2cc1OC
8,> 48.2,CN(C1(C)CCS(=O)(=O)C1)S(=O)(=O)c1ccc(F)cc1 (stereo not given)
9,> 46.9,CCOC(=O)N1CCN(C(=O)c2ccc3ccccc3c2)CC1
10,30.1,Cc1nc(-c2cccc(NC(=O)Cc3ccccc3)c2)cs1
11,> 48.9,O=C(O)c1cccc(Nc2c([N+](=O)[O-])c(=O)oc3ccccc23)c1
12,> 45.6,CN1CCC(OC(=O)COc2ccc(F)cc2)CC1.Cl
13,> 48.7,CC1C(=O)N2CCCc3cc(NC(=O)c4ccccc4F)cc1c32 (stereo not given)
14,6.7,Cc1cccc(NC(=S)N2CCN(c3ccccn3)CC2)c1
15,46.9,CCC(C)NC(=O)c1cn(-c2cccc(OC)c2)c(=O)c2ccccc12 (stereo not given)
16,2.7,COc1ccc2nc(C)cc(N3CCN(c4ccccc4)CC3)c2c1
17,12.1,COc1ccccc1NS(=O)(=O)c1ccc2ccccc2c1
18,0.6,Cc1ccc(C)c(NC(=O)c2cc([N+](=O)[O-])cc([N+](=O)[O-])c2)c1
19,> 52.1,COc1ccc(NC(=O)c2ccccc2-c2ccccc2C(=O)O)cc1
20,0.7,Oc1[nH]c2ccccc2c1C=Nc1ccccc1
21,4.6,O=C(Nc1ccc(CN2CCS(=O)(=O)CC2)cc1)c1ccc(Cl)cc1

# The remaining lines, values behind:
row,SMILES,solubility kinetic [µg/mL]
1,COc1cc(C(=O)NC(c2ccccc2)c2ccccc2)cc(OC)c1C,< 0.8
2,O=C(NN1C(=O)C2C3C=CC(C3)C2C1=O)C(O)c1ccccc1 (stereo not given),> 46.8
3,O=C(NC1CCCCCC1)C(=S)NCc1ccccc1,1.6
4,Cc1cc(C(=O)COc2ccccc2C(N)=O)c(C)n1C,2.5
5,COC(=O)/C(C#N)=C\c1c(OC)[nH]c2ccccc12,1.1
6,O=C(Nc1ccc(S(=O)(=O)Nc2ccccc2)cc1)C1CC1,12.6
7,Cc1cccc(NC(=O)CCN2CCCCC2)c1.Cl,> 42.4
8,COc1cc(C(=O)OCC(C)=O)cc(NC(=O)c2ccco2)c1OC,2.4
9,Cc1cccc(NC(=O)COC(=O)CN2CCCCCC2=O)c1C,> 49.9
10,Cc1ccc(NC(=S)NC(=O)c2cccs2)cc1F,1.6
11,CCC(C)NC(=O)N1c2ccccc2Sc2ccccc21 (stereo not given),28
12,O=c1cc(CN2CCOCC2)c2cc(Cl)ccc2o1,> 42
13,CCc1cccc(NC(=O)C2CCN(c3ncnc4sc(C)c(C)c34)CC2)c1,2.7
14,CNC(=O)N1CCC(C(=O)c2c(C)c(C)c(C)c(C)c2C)CC1,36.5
15,CCOc1ccc2nc(SCC3CC3(Cl)Cl)[nH]c2c1 (stereo not given),29.4
16,N#CC(C#N)=CN=c1ccn(Cc2ccc(Cl)cc2Cl)cc1,1.4
17,COc1ccc(Cl)cc1/C=C(\C#N)C(N)=O,> 35.5
18,CC(=O)CCN1C(=O)NC2(CCCc3ccccc32)C1=O (stereo not given),> 42.9
19,O=C(CN1CCCCCC1)NCc1ccccc1,34.8
20,CC1CCN(C(=O)Cn2cc(C(F)(F)F)ccc2=O)c2ccccc2S1 (stereo not given),> 57.4
21,CN1CCC(NC(=O)NC2CCCCC2)CC1,> 35.9
22,O=C1NC(=Nc2cccc([N+](=O)[O-])c2)SC1(CO)CO,41.2
23,O=C(COC(=O)c1ccc(O)cc1)Nc1ccc2c(c1)OCCO2,21.9
24,O=C(O)c1ccc(NC(=O)c2ccc(COc3ccccc3)o2)cc1,> 50.6
25,COC(=O)c1ccc(COC(=O)CNC(=O)CNC(=O)c2ccc(OC)cc2)cc1,16.1
26,N#Cc1ccc(COC(=O)c2cnc(Cl)c(Cl)c2)cc1,1.4

row,SMILES,solubility kinetic [µg/mL]
1,O=C(Nc1cccc(F)c1)c1ccco1,26.7
2,CCC(C)[C@H](NC(=O)N1CCC(Cc2ccccc2)CC1)C(=O)O (stereo not given in full),> 49.9
3,O=C(COC(=O)c1ccccc1F)NCc1ccc2c(c1)OCO2,18.1
4,Cc1ccccc1OC(C)C(=O)NCc1cccnc1 (stereo not given),38.1
5,COc1ccc(C(=O)COC(=O)c2ccccn2)cc1OC,44.5
6,S=C(NCc1ccccc1)NCc1ccccc1Cl,28.4
7,O=C(NCc1ccco1)C1CC(c2ccc(Cl)cc2)=NO1 (stereo not given),2.9
8,Cc1csc(SCC(=O)Nc2ccccc2)n1,35.5
9,Cc1csc(SCC(=O)NCc2ccccc2)n1,> 41.8
10,CC(OC(=O)c1cccc([N+](=O)[O-])c1)C(=O)NCc1ccc2c(c1)OCO2 (stereo not given),22.4
11,COC(=O)c1ccc(OC(=O)c2cnccn2)cc1,> 38.7
12,CCc1c(C(=O)Nc2ccccc2C(N)=O)csc1C,3.6
13,COc1ccc(NC(=S)NC(=NS(=O)(=O)c2ccc(Cl)cc2)c2ccccc2)cc1,47.3
14,CCN(CC)C(=O)N1CCN(S(=O)(=O)c2ccccc2)CC1,> 48.8
15,O=C(NCCc1ccccc1)c1ccccc1[N+](=O)[O-],33.6
16,COc1cc(NC(=O)Nc2cc(C)on2)cc(OC)c1OC,37.8
17,O=C(COc1ccc(S(=O)(=O)N2CCOCC2)cc1)Nc1ccc(Br)cc1,5.4
18,CSc1nsc(SCC(=O)Nc2cccc(C(=O)O)c2)n1,> 51.2
19,CN(C1CCCCC1)S(=O)(=O)c1ccc(-c2ccccn2)s1,0.5
20,O=C(/C=C/c1ccco1)Nc1cccnc1Cl,33
21,CCC(C)Nc1nc(N)c([N+](=O)[O-])c(NC2CCCCC2)n1 (stereo not given),< 0.1
22,O=C(CSc1nnc2ccccn12)NC(=O)c1ccccc1Cl,> 52
23,S=C1SCN(Cc2ccco2)CN1Cc1ccco1,> 44.2
24,COc1ccccc1Nc1nc(NCC(C)C)nc(N)c1[N+](=O)[O-],0.3
25,O=C1CN(C(=O)CSc2nncs2)c2ccccc2N1,> 46
26,Cc1cc(NC(=O)C2CC2)ccc1NC(=O)c1cccs1,13.1

row,SMILES,solubility kinetic [µg/mL]
1,O=C(/C=C/c1ccc2c(c1)OCO2)NCC1CCCO1 (stereo not given),> 41.3
2,O=C(COC(=O)CC1CCS(=O)(=O)C1)Nc1ccc(F)cc1 (stereo not given),> 49.4
3,O=C(NCC1CC1)Nc1ccccc1,> 28.5
4,O=C(CNC(=O)c1ccco1)Nc1ccc(OC(F)F)cc1,> 46.5
5,N#C/C(=C\c1ccc(Cl)c([N+](=O)[O-])c1)c1ccccn1,2.5
6,CCN1CCN(C(CNS(=O)(=O)c2cccs2)c2cccnc2)CC1 (stereo not given),49.3
7,CCC(=O)Nc1ccc2c(c1)Cc1cc(NC(=O)CC)ccc1-2,0.5
8,CCCCn1c(N)c(N(CC(C)C)C(=O)c2cnccn2)c(=O)[nH]c1=O,53.9
9,N#CC1(NC(=O)CSc2nnc3n2CCCCC3)CCCCC1,> 50
10,COc1ccccc1C(=O)N1CCN(C(=O)Cc2ccccc2)CC1,43.2
11,CCOc1ccccc1CNC(=O)CCc1cn(C)c2ccccc12,3.1
12,O=C(OCc1cnc(Cl)s1)c1cccs1,26.5
13,Cc1ccc(C23CC4CC(CC(CN)(C4)C2)C3)cc1.Cl,> 43.8
14,CCOC(=O)C1=C(c2ccccc2)NC(=O)NC1c1ccsc1 (stereo not given),43.9
15,CN1CCN(S(=O)(=O)c2ccc3c(c2)oc(=O)n3C)CC1,> 46.7
16,N#Cc1cccc(NC(=O)CSc2n[nH]c(=O)[nH]c2=O)c1,> 45.5
17,c1ccc(-c2cc(-c3ccccc3)ncn2)cc1,4.6
18,CCCCN1C(=O)NC(NC(=O)C2CC2)(C(F)(F)F)C1=O (stereo not given),> 46.1
19,NC1=NC(=O)/C(=C/c2ccc(Br)cc2)S1,1.8
20,O=C(O)CCCc1c(-[n+]2ccccc2)[nH]c2ccccc12.[Cl-],> 47.5
21,C#CCSc1nc2sc3c(c2c(=O)n1C)CCC3,< 0.3
22,CC(Sc1cccc[n+]1[O-])c1ccccc1 (stereo not given),> 34.7
23,O=C(NCCOc1ccccc1)C1=CC=CN2CCS(=O)(=O)N=C12,> 52.1
24,COC(=O)C(CC(C)C)NC(=O)c1cccs1 (stereo not given),> 38.3
25,CC1CCCC(C)N1C(=O)COC(=O)CCC(=O)c1cccs1 (stereo not given),> 50.6
